#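 Briefly, cells in 96-well plates were exposed to five compound concentrations for 48 h, and endpoints were estimated by linear interpolation. GI50: concentration for 50% inhibition of growth.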 Calls of active or inactive are those of the source. Rule as the data show it: active = GI50 up to about 1.1 µM and inactive = higher.
# Columns and labels:
# Experiment in all cases: inhibition of tumour cell growth, NCI panel, 48 h
# [1] = tested on: OVCAR-8
# [2] = tested on: DLD-1
# [3] = tested on: SF-539
# [4] = tested on: HCT-116
# [5] = tested on: COLO 205
# [6] = tested on: NCI-H23
# [7] = tested on: TK-10
# [8] = tested on: XF498
# [9] = tested on: CAKI-1
# [10] = tested on: K562
# [11] = tested on: HCC 2998
# [12] = tested on: OVCAR-5
# [13] = tested on: A498
# [14] = tested on: SNB-19
# [15] = tested on: SK-MEL-28
# [16] = tested on: Malme-3M
# [17] = tested on: U-251
# [18] = tested on: HL-60
# [19] = tested on: M14
# [20] = tested on: M19-MEL
# [21] = tested on: UO-31
# [22] = tested on: SF-295
# [23] = tested on: UACC-62
# [24] = tested on: HOP-62
# [25] = tested on: MOLT-4
# [26] = tested on: SN12C
# [27] = tested on: NCI-H226
# [28] = tested on: HOP-18
# [29] = tested on: NCI-H460
# [30] = tested on: LXFL 529
# [31] = tested on: SR
# [32] = tested on: RPMI-8226
# [33] = tested on: 786-0
# [34] = tested on: LOX IMVI
# [35] = tested on: HT-29
# [36] = tested on: SW-620
# [37] = tested on: RXF 631
# [38] = tested on: SF-268
# [39] = tested on: SK-OV-3
# [40] = tested on: SNB-78
# [41] = tested on: RXF 393
# [42] = tested on: NCI-H522
# [43] = tested on: HOP-92
# [44] = tested on: HCT-15
# [45] = tested on: SK-MEL-2
# [46] = tested on: DMS-273
# [47] = tested on: KM12
# [48] = tested on: DMS-114
# [49] = tested on: UACC-257
# [50] = tested on: IGROV-1
# [51] = tested on: SK-MEL-5
# [52] = tested on: EKVX
# [53] = tested on: A549
# [54] = tested on: CCRF-CEM
# [55] = tested on: ACHN
# [56] = tested on: SNB-75
# [57] = tested on: OVCAR-3
# [58] = tested on: KM-20L2
# [59] = tested on: Hs-578T
# [60] = tested on: NCI/ADR-RES
# [61] = tested on: DU-145
# [62] = tested on: MDA-MB-231
# [63] = tested on: PC-3
# [64] = tested on: BT-549
# [65] = tested on: T47D
# [66] = tested on: MCF7
# [67] = tested on: MDA-N
# [68] = tested on: MDA-MB-435
# [69] = tested on: OVCAR-4
smiles,measurement,setting,value
CSC(=S)NNC(=O)c1ccncc1,GI50,[1],19.8 µM (inactive)
same,GI50,[2],13.5 µM (inactive)
same,GI50,[3],19.8 µM (inactive)
same,GI50,[4],21 µM (inactive)
same,GI50,[5],34.9 µM (inactive)
same,GI50,[6],16.1 µM (inactive)
same,GI50,[7],26.7 µM (inactive)
same,GI50,[8],21.9 µM (inactive)
same,GI50,[9],21.1 µM (inactive)
same,GI50,[10],19.2 µM (inactive)
same,GI50,[11],23.6 µM (inactive)
same,GI50,[12],23.9 µM (inactive)
same,GI50,[13],70 µM (inactive)
same,GI50,[14],22.7 µM (inactive)
same,GI50,[15],18.9 µM (inactive)
same,GI50,[16],18.8 µM (inactive)
same,GI50,[17],22.5 µM (inactive)
same,GI50,[18],20 µM (inactive)
same,GI50,[19],19 µM (inactive)
same,GI50,[20],19.1 µM (inactive)
same,GI50,[21],17.8 µM (inactive)
same,GI50,[22],22.6 µM (inactive)
same,GI50,[23],16.5 µM (inactive)
same,GI50,[24],20.8 µM (inactive)
same,GI50,[25],23.2 µM (inactive)
same,GI50,[26],21.4 µM (inactive)
same,GI50,[27],18.2 µM (inactive)
same,GI50,[28],25.2 µM (inactive)
same,GI50,[29],46.6 µM (inactive)
same,GI50,[30],15.7 µM (inactive)
same,GI50,[31],14.6 µM (inactive)
same,GI50,[32],22.3 µM (inactive)
same,GI50,[33],16.2 µM (inactive)
same,GI50,[34],16.8 µM (inactive)
same,GI50,[35],18.2 µM (inactive)
same,GI50,[36],11.3 µM (inactive)
same,GI50,[37],30 µM (inactive)
same,GI50,[38],21.6 µM (inactive)
same,GI50,[39],28.8 µM (inactive)
same,GI50,[40],28.2 µM (inactive)
same,GI50,[41],16.1 µM (inactive)
same,GI50,[42],16.9 µM (inactive)
same,GI50,[43],25.3 µM (inactive)
same,GI50,[44],15 µM
same,GI50,[45],17.4 µM (inactive)
same,GI50,[46],21.7 µM (inactive)
same,GI50,[47],40.7 µM (inactive)
same,GI50,[48],14.3 µM (inactive)
same,GI50,[49],23.8 µM (inactive)
same,GI50,[50],14.6 µM (inactive)
same,GI50,[51],23.7 µM (inactive)
same,GI50,[52],22.2 µM (inactive)
same,GI50,[53],61.4 µM (inactive)
same,GI50,[54],18.9 µM (inactive)
same,GI50,[55],18.1 µM (inactive)
same,GI50,[56],17.5 µM (inactive)
same,GI50,[57],21.4 µM (inactive)
same,GI50,[58],32.7 µM (inactive)
CCOC1c2cc(OC)c(OC)cc2-c2ccc3ccccc3c2N1C (stereo unspecified),GI50,[1],12.2 µM (inactive)
same,GI50,[2],25.5 µM (inactive)
same,GI50,[3],18.2 µM (inactive)
same,GI50,[4],8.59 µM (inactive)
same,GI50,[5],6.05 µM (inactive)
same,GI50,[59],6.4 µM (inactive)
same,GI50,[60],29.7 µM (inactive)
same,GI50,[6],8 µM (inactive)
same,GI50,[7],31.6 µM (inactive)
same,GI50,[8],14.8 µM (inactive)
same,GI50,[9],34.1 µM (inactive)
same,GI50,[10],7.16 µM (inactive)
same,GI50,[11],14.1 µM (inactive)
same,GI50,[12],21.8 µM (inactive)
same,GI50,[14],9.86 µM (inactive)
same,GI50,[15],13.4 µM (inactive)
same,GI50,[16],9.16 µM (inactive)
same,GI50,[17],6.41 µM (inactive)
same,GI50,[18],44.1 µM (inactive)
same,GI50,[19],19.3 µM (inactive)
same,GI50,[20],11.2 µM (inactive)
same,GI50,[21],44.6 µM (inactive)
same,GI50,[22],24.4 µM (inactive)
same,GI50,[23],12.6 µM (inactive)
same,GI50,[24],15.7 µM (inactive)
same,GI50,[61],15 µM (inactive)
same,GI50,[25],4.43 µM (inactive)
same,GI50,[26],7.76 µM (inactive)
same,GI50,[27],19.2 µM (inactive)
same,GI50,[28],42.4 µM (inactive)
same,GI50,[29],12.2 µM (inactive)
same,GI50,[30],5.96 µM (inactive)
same,GI50,[62],13.5 µM (inactive)
same,GI50,[31],7.78 µM (inactive)
same,GI50,[63],5.15 µM (inactive)
same,GI50,[32],10.7 µM (inactive)
same,GI50,[33],16.8 µM (inactive)
same,GI50,[34],14.9 µM (inactive)
same,GI50,[35],10.9 µM (inactive)
same,GI50,[64],12.6 µM (inactive)
same,GI50,[36],8.65 µM (inactive)
same,GI50,[37],22.9 µM (inactive)
same,GI50,[38],2.05 µM (inactive)
same,GI50,[39],22 µM (inactive)
same,GI50,[40],33.6 µM (inactive)
same,GI50,[41],21.7 µM (inactive)
same,GI50,[42],3.02 µM (inactive)
same,GI50,[43],21.9 µM (inactive)
same,GI50,[44],60.1 µM
same,GI50,[45],13.9 µM (inactive)
same,GI50,[46],6.46 µM (inactive)
same,GI50,[47],2.66 µM (inactive)
same,GI50,[48],9.35 µM (inactive)
same,GI50,[65],4.84 µM (inactive)
same,GI50,[49],16.6 µM (inactive)
same,GI50,[50],19.2 µM (inactive)
same,GI50,[66],12.4 µM (inactive)
same,GI50,[51],16.4 µM (inactive)
same,GI50,[52],6.27 µM (inactive)
same,GI50,[67],10.6 µM (inactive)
same,GI50,[53],5.62 µM (inactive)
same,GI50,[68],13.8 µM (inactive)
same,GI50,[54],18 µM (inactive)
same,GI50,[55],30.3 µM (inactive)
same,GI50,[69],19 µM (inactive)
same,GI50,[56],11.8 µM (inactive)
same,GI50,[57],11.5 µM (inactive)
same,GI50,[58],15.3 µM (inactive)
